The text below walks through data of patent US12233057B2, “Small molecules for inhibiting chemokine activity and/or cancer cells growth” (AlonBio Ltd., priority 2015, dated 2025).

For this assay, the system named is SDF-1. Put plainly: Migration assay: Jurkat cells towards SDF-1 (Transwell). It counts as cell-based, human. The conditions noted are these: 10 μg/ml. How it is done:
600 μl of RPMI medium was added to the lower chambers of Transwell® transmigration plates, supplemented with 2 μg/ml of MIP3a, 100 ng/ml of SDF-1 or 10 ng/ml of MCP-1. The tested small molecule was added to the lower chambers at the indicated concentration, except in control samples. The MIP3a, SDF-1 or MCP-1 was incubated with the small molecule for 30 minutes at room temperature before the initiation of the migration assay. Following 30 minutes of incubation 2×10^5 immune cells were added to the upper chambers of the transmigration plates in a total volume of 100 μl. Cells which migrated within 3 hours to the bottom chamber of the Transwell® plates were counted using a FACScalibur™ flow cytometer.
To evaluate migration towards SDF-1, Jurkat cells were re-suspended in RPMI medium containing 1% fetal calf serum (FCS).

SMILES strings stand for the structures.

For the compound `CCCCCc1cc2cc(O)cc(Oc3c(O)cc(O)cc3CCCCC)c2c(=O)o1` [BKT300], the “Inhibition of migration of Jurkat cells towards SDF-1” value runs as follows: (BKT300 at 78% purity) “significantly inhibited”; (BKT300 at 98% purity) “significantly inhibited”.
